Data published in article PMC6017735, “Novel Semisynthetic Derivatives of Bile Acids as Effective Tyrosyl-DNA Phosphodiesterase 1 Inhibitors” (Molecules : A Journal of Synthetic Chemistry and Natural …, 2018).
“And” between values parts separate entries of the source, which are not always exact repeats. Equal values may be shown once. Read-outs that look alike come from different tables or passages of the source.

Tests used:
[1] = target: T1, Tdp1 (Homo sapiens, UniProt Q9NUW8); test: Real-time detection of Tdp1 activity with FAM-BHQ1 oligonucleotide biosensor; format: biochemical
T1 construct: inferred from the pET 16B vector and the Ni-chelating resin) (N); made in house
T1 sequence (Q9NUW8 whole entry): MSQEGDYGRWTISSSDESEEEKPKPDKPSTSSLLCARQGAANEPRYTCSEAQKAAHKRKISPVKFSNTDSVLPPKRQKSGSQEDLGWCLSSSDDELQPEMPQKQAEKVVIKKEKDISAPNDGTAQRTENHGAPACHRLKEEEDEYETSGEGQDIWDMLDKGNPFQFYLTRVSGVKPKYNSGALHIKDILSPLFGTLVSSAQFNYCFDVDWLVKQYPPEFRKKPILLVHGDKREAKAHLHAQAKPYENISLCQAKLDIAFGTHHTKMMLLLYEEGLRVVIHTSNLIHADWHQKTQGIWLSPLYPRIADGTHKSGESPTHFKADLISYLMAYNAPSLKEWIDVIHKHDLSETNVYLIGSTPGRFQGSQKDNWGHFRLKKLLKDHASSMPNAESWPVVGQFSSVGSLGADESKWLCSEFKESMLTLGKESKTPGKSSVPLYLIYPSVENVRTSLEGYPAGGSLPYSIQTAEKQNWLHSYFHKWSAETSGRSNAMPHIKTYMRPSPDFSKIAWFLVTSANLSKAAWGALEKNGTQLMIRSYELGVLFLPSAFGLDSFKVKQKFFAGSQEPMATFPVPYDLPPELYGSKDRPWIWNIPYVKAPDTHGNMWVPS
Source text: For testing, we used recently designed oligonucleotide biosensors for the real-time detection of Tdp1 activity based on the ability of Tdp1 to remove fluorophore quenchers from the 3′-end of DNA [27]. The hexadecameric oligonucleotide carried 5(6)-carboxyfluorescein (FAM) at the 5′-end and fluorophore quencher BHQ1 (Black Hole Quencher-1) at the 3′-end. Tdp1 inhibitors prevent the removal of fluorophore quenchers, thus reducing fluorescence intensity.
The recombinant Tdp1 was purified to homogeneity by chromatography on Ni-chelating resin and phosphocellulose P11 as described using the plasmid pET 16B-Tdp1 kindly provided by Dr. K.W. Caldecott (University of Sussex, United Kingdom).
Real-Time Detection of Tdp1 Activity. The Tdp1 activity measurements were carried out as described. Briefly, Tdp1-biosensor with a final concentration of 50 nM was incubated in a volume of 200 μL containing a Tdp1 buffer (50 mM Tris-HCl pH8.0, 50 mM NaCl, 7 mM β-mercaptoethanol) supplemented with purified 1.3 nM Tdp1 and various concentrations of the inhibitor in a 1.5% DMSO solution. Fluorescence measurements (Ex485/Em520 nm) were carried out during the linear phase of reaction (from 0 to 8 min) every 55 s. The reactions were incubated at a constant temperature of 26 °C in a POLARstar OPTIMA fluorimeter, BMG LABTECH, GmbH. The influence of compounds was evaluated by comparing the fluorescence increase rate in the presence of compounds to that of the DMSO control wells.

[2] = target: T1, Tdp1; settings: single- and double-stranded substrates of DNA; cited from earlier work
[3] = IC50 (concentration that inhibits the activity of the enzyme by 50%), samples synthesized by the authors, 50 nM biosensor, 1.3 nM Tdp1, 26 °C

Structure (SMILES): CC(=O)OC1CCC2(C)C(C1)CC(OC(C)=O)C1C2CCC2(C)C(C(C)CCC(=O)NCCc3c[nH]c4ccccc34)CCC12 (centres unmarked) [Compound 1a]
- IC50 [1, 3]: 320 ± 110 nM

Structure (SMILES): C[C@H](CCC(=O)NC12CC3CC(CC(C3)C1)C2)[C@H]1CCC2[C@@H]3CC[C@@H]4C[C@H](O)CC[C@]4(C)C3C[C@H](O)[C@@]21C (stereo partly drawn) [Compound 8b, N-(1′-Adamantyl)-3α,12α-dihidroxy-5β-cholan-24-amide]
- IC50 [1, 3]: 2300 ± 400 nM

Structure (SMILES): CC(=O)O[C@@H]1CC[C@@]2(C)[C@H](CC[C@@H]3[C@@H]2C[C@H](OC(C)=O)[C@]2(C)[C@@H]([C@H](C)CCC(=O)Nc4cccnc4)CC[C@@H]32)C1 [Compound 7a, N-(Pyridin-3-yl)-3α,12α-diacetoxy-5β-cholan-24-amide]
- IC50 [1, 3]: 4080 ± 80 nM

Structure (SMILES): CC(=O)OC1CCC2(C)C(CCC3C2CC(O)C2(C)C(C(C)CCC(=O)NCCc4c[nH]c5ccccc45)CCC32)C1 (centres unmarked) [Compound 3d]
- IC50 [1, 3]: 480 ± 40 nM

Structure (SMILES): CC(=O)OC1CCC2(C)C(CCC3C2CC(OC(C)=O)C2(C)C(C(C)CCC(=O)NCCc4c[nH]c5ccccc45)CCC32)C1 (centres unmarked) [Compound 3a]
- IC50 [1, 3]: 650 ± 160 nM

Structure (SMILES): CC(=O)OC1CC2C(CCC3CC(O)CCC32C)C2CCC(C(C)CCC(=O)NCCc3c[nH]c4ccccc34)C12C (centres unmarked) [Compound 3c]
- IC50 [1, 3]: 950 ± 50 nM

Structure (SMILES): CC(=O)O[C@@H]1CC[C@@]2(C)[C@H](CC[C@@H]3[C@@H]2C[C@H](OC(C)=O)[C@]2(C)[C@@H]([C@H](C)CCC(=O)Nc4ccc(Br)cc4)CC[C@@H]32)C1 [Compound 5a, N-(4′-Bromophenyl)-3α,12α-diacetoxy-5β-cholan-24-amide]
- IC50 [1, 3]: 420 ± 10 nM

Structure (SMILES): CC(=O)O[C@@H]1CC[C@@]2(C)[C@H](CC[C@@H]3[C@@H]2C[C@H](OC(C)=O)[C@]2(C)[C@@H]([C@H](C)CCC(=O)Nc4ccccc4)CC[C@@H]32)C1 [Compound 4a, N-Phenyl-3α,12α-diacetoxy-5β-cholan-24-amide]
- IC50 [1, 3]: 430 ± 130 nM

Structure (SMILES): C[C@H](CCC(=O)Nc1cccnc1)[C@H]1CC[C@H]2[C@@H]3CC[C@@H]4C[C@H](O)CC[C@]4(C)[C@H]3C[C@H](O)[C@]12C [Compound 7b, N-(Pyridin-3-yl)-3α,12α-dihydroxy-5β-cholan-24-amide]
- IC50 [1, 3]: > 15000 nM

Structure (SMILES): CC(CCC(=O)NCCc1c[nH]c2ccccc12)C1CCC2C3CCC4CC(O)CCC4(C)C3CC(O)C12C (centres unmarked) [Compound 3b]
- IC50 [1, 3]: 2700 ± 200 nM

Structure (SMILES): N=C(N)c1ccc(-c2ccc(-c3ccc(C(=N)N)cc3)o2)cc1 [Fur, furamidine]
- Tdp1 inhibition [2]: low micromolar concentrations

Structure (SMILES): CC(CCC(=O)NCCc1c[nH]c2ccccc12)C1CCC2C3C(O)CC4CC(O)CCC4(C)C3CCC12C (centres unmarked) [Compound 1b]
- IC50 [1, 3]: 2650 ± 300 nM
- IC50 ([1]; commercial sample of compound 1b (virtual screening hit), read-out: IC50): 300 nM

Structure (SMILES): CC(=O)O[C@@H]1CC[C@@]2(C)[C@H](CC[C@@H]3[C@@H]2C[C@H](OC(C)=O)[C@]2(C)[C@@H]([C@H](C)CCC(=O)NCCCN4CCOCC4)CC[C@@H]32)C1 [Compound 11a, N-(3′-Morpholinopropyl)-3α,12α-diacetoxy-5β-cholan-24-amide]
- IC50 [1, 3]: > 15000 nM

Structure (SMILES): CC(=O)OC1CCC2(C)C(C1)CC(OC(C)=O)C1C2CCC2(C)C(C(C)CCC(=O)NCCc3c[nH]c4ccccc34)CCC12 (centres unmarked) [Compound 2a]
- IC50 [1, 3]: 380 ± 120 nM

Structure (SMILES): C[C@H](CCC(=O)Nc1ccc(Br)cc1)[C@H]1CC[C@H]2[C@@H]3CC[C@@H]4C[C@H](O)CC[C@]4(C)[C@H]3C[C@H](O)[C@]12C [Compound 5b, N-(4′-Bromophenyl)-3α,12α-dihydroxy-5β-cholan-24-amide]
- IC50 [1, 3]: 1300 ± 200 nM

Structure (SMILES): CCN(CC)CCCNC(=O)CC[C@@H](C)[C@H]1CCC2[C@@H]3CC[C@@H]4C[C@H](OC(C)=O)CC[C@]4(C)C3C[C@H](OC(C)=O)[C@@]21C (stereo partly drawn) [Compound 10a, N-(3′,3′-Diethylaminopropyl)-3α,12α-diacetoxy-5β-cholan-24-amide]
- IC50 [1, 3]: > 15000 nM

Structure (SMILES): C[C@H](CCC(=O)Nc1ccccc1)[C@H]1CC[C@H]2[C@@H]3CC[C@@H]4C[C@H](O)CC[C@]4(C)[C@H]3C[C@H](O)[C@]12C [Compound 4b, N-Phenyl-3α,12α-dihydroxy-5β-cholan-24-amide]
- IC50 [1, 3]: 6700 ± 700 nM

Structure (SMILES): CC(=O)O[C@@H]1CC[C@@]2(C)[C@H](CC[C@@H]3[C@@H]2C[C@H](OC(C)=O)[C@]2(C)[C@@H]([C@H](C)CCC(=O)Nc4ccc(C)cc4)CC[C@@H]32)C1 [Compound 6a, N-(p-Tolyl)-3α,12α-diacetoxy-5β-cholan-24-amide]
- IC50 [1, 3]: 1000 ± 50 nM

Structure (SMILES): CC(=O)O[C@@H]1CC[C@]2(C)C3C[C@H](OC(C)=O)[C@@]4(C)C(CC[C@@H]4[C@H](C)CCC(=O)NC45CC6CC(CC(C6)C4)C5)[C@@H]3CC[C@@H]2C1 (stereo partly drawn) [Compound 8a, N-(1′-Adamantyl)-3α,12α-diacetoxy-5β-cholan-24-amide]
- IC50 [1, 3]: 470 ± 80 nM

Structure (SMILES): CC(CCC(=O)NCCc1c[nH]c2ccccc12)C1CCC2C3C(O)CC4CC(O)CCC4(C)C3CCC12C (centres unmarked) [Compound 2b]
- IC50 [1, 3]: ~2600 nM and 2600 nM

Structure (SMILES): CC(=O)OC1CCC2(C)C(CCC3C2CC(OC(C)=O)C2(C)C(C(C)CCC(=O)NCCc4cc(C(C)(C)C)c(O)c(C(C)(C)C)c4)CCC32)C1 (stereo not drawn) [Compound 9a, N-(2′′-(3′,5′-Di-tret-buthyl-4′-hydroxyphenyl)-ethyl)-3α,12α-diacetoxy-5β-cholan-24-amide]
- IC50 [1, 3]: 290 ± 120 nM

Structure (SMILES): Cc1ccc(NC(=O)CC[C@@H](C)[C@H]2CC[C@H]3[C@@H]4CC[C@@H]5C[C@H](O)CC[C@]5(C)[C@H]4C[C@H](O)[C@]23C)cc1 [Compound 6b, N-(p-Tolyl)-3α,12α-dihydroxy-5β-cholan-24-amide]
- IC50 [1, 3]: 7600 ± 3900 nM
